Patent publication US20060025566A1, “Macrocyclic modulators of the ghrelin receptor” (Tranzyme Pharma Inc., priority 2003, published 2006)
Where two headings read alike, the source gives them in different places.

Target: T1, human growth hormone secretagogue receptor (hGHS-R1a) (Homo sapiens, UniProt Q92847)
T1 construct: purchased PerkinElmer BioSignal #RBHGHSM, lot#1887; host or cells: HEK-293, stably transfected (membranes)
Assay: Competitive radioligand binding assay (ghrelin receptor), [125I]-ghrelin displacement on GHS-R/HEK 293 membranes
Details: [125I]-ghrelin competition, GHS-R/HEK 293 membranes
Method: The competitive binding assay at the human growth hormone secretagogue receptor (hGHS-R1a) was carried out analogously to assays described in the literature.
Multiscreen Harvest plates-GF/C (Millipore, #MAHFC 1H60) • 4. […] Bottom seal (Millipore, #MATAH0P00) • 7. […] Binding Buffer: 25 mM Hepes (pH 7.4), 1 mM CaCl2, 5 mM MgCl2, 2.5 mM EDTA, 0.4% BSA Assay Volumes
Competition experiments were performed in a 300 μl filtration assay format. • 1. 220 μL of membranes diluted in binding buffer • 2. 40 μL of compound diluted in binding buffer • 3. […] Compound Handling
Compounds were provided frozen on dry ice at a stock concentration of 10 mM diluted in 100% DMSO and stored at −80° C. until the day of testing. On the test day, compounds were allowed to thaw at rt O/N and then diluted in assay buffer according to the desired test concentrations.
Plates were sealed with TopSeal-A, vortexed gently and incubated at rt for 30 min. The reaction was arrested by filtering samples through Multiscreen Harvest plates (pre-soaked in 0.5% polyethyleneimine) using a Tomtec Harvester, washed 9 times with 500 μL of cold 50 mM Tris-HCl (pH 7.4, 4° C.), and then plates were air-dried in a fumehood for 30 min. A bottom seal was applied to the plates prior to the addition of 25 μL of MicroScint-0 to each well. […] Results were expressed as counts per minute (cpm).
Data were analyzed by GraphPad Prism (GraphPad Software, San Diego, Calif.) using a variable slope non-linear regression analysis.
• 1. […] Key Aspects of Method • 1. […] Results

[1] = binding activity at the human ghrelin receptor, read-out: Ki
[2] = Table 3A, read-out: Binding Activity at the Human Ghrelin Receptor

T1 sequence (Q92847 whole entry): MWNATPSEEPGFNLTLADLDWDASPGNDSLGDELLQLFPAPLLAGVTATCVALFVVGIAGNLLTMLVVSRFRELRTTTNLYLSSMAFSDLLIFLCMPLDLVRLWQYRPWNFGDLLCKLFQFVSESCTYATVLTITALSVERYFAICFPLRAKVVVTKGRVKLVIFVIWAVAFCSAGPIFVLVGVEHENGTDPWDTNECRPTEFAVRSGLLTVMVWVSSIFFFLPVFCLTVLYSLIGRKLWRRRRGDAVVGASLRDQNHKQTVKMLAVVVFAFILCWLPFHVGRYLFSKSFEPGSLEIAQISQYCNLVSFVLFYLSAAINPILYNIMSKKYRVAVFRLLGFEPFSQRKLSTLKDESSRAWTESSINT

Row | Compound | Ki [1] [µM] | Ki [2] [µM]
1 | CCC[C@@H]1NCCOc2ccccc2CCCNC(=O)CNC(=O)CN(C)C1=O [compound 51] | > 10 | 
2 | CCCC[C@H]1NC(=O)CN(C)C(=O)[C@H](CCC)NCCOc2ccccc2CCCNC1=O [compound 52] | 0.1 to 1 | 
3 | CCC[C@@H]1NCCOc2ccccc2CCCNC(=O)[C@@H](CCCN)NC(=O)CN(C)C1=O [compound 53] | > 10 | 
4 | CCC[C@@H]1NCCOc2ccccc2CCCNC(=O)[C@@H](Cc2ccccc2)NC(=O)[C@H](C)NC1=O [compound 59] | 1 to 10 | 
5 | CCC[C@@H]1NCCOc2ccccc2CCCNC(=O)[C@@H](Cc2ccccc2)NC(=O)[C@@H](C)NC1=O [compound 60] | 0.1 to 1 | 
6 | CCC[C@@H]1NCCOc2ccccc2CCCNC(=O)[C@@H](Cc2ccccc2)NC(=O)CNC1=O [compound 61] | 0.1 to 1 | 
7 | CCC[C@@H]1NCCOc2ccccc2CCCNC(=O)[C@@H](Cc2ccccc2)NC(=O)[C@H](CC(C)C)NC1=O [compound 62] | 1 to 10 | 
8 | CCC[C@@H]1NCCOc2ccccc2CCCNC(=O)[C@@H](Cc2ccccc2)NC(=O)[C@@H](CC(C)C)NC1=O [compound 63] | > 10 | 
9 | CCC[C@@H]1NCCOc2ccccc2CCCNC(=O)[C@@H](Cc2ccccc2)NC(=O)[C@H](Cc2ccccc2)NC1=O [compound 64] | > 10 | 
10 | CCC[C@@H]1NCCOc2ccccc2CCCNC(=O)[C@@H](Cc2ccccc2)NC(=O)C2(CCCC2)NC1=O [compound 67] | 0.1 to 1 | 
11 | CCC[C@@H]1NCCOc2ccccc2CCCNC(=O)[C@@H](Cc2ccccc2)NC(=O)[C@H](CCCCN)NC1=O [compound 68] | 1 to 10 | 
12 | C[C@@H]1NCCOc2ccccc2CCCNC(=O)[C@@H](Cc2ccccc2)NC(=O)CN(C)C1=O [compound 72] | 1 to 10 | 
13 | CN1CC(=O)N[C@H](Cc2ccccc2)C(=O)NCCCc2ccccc2OCCN[C@@H](CCC(=O)O)C1=O [compound 73] | > 10 | 
14 | CN1CC(=O)N[C@H](Cc2ccccc2)C(=O)NCCCc2ccccc2OCCN[C@@H](CCCCN)C1=O [compound 74] | 1 to 10 | 
15 | CN1CC(=O)N[C@H](Cc2ccccc2)C(=O)NCCCc2ccccc2OCCN[C@@H](CO)C1=O [compound 76] | > 10 | 
16 | CN1CC(=O)NC(Cc2ccccc2)C(=O)NCCCc2ccccc2OCCNCC1=O (centres unmarked) [compound 80] | > 10 | 
17 | CCCC1NCCOCCNC(=O)C(Cc2ccccc2)NC(=O)CN(C)C1=O (centres unmarked) [compound 81] | > 10 | 
18 | CCCC1NCCC#CCCNC(=O)C(Cc2ccccc2)NC(=O)CN(C)C1=O (centres unmarked) [compound 82] | > 10 | 
19 | CCCC1NCCC=CCCNC(=O)C(Cc2ccccc2)NC(=O)CN(C)C1=O (centres unmarked) [compound 83] | > 10 | 
20 | CCCC1NCc2cccc(c2)CNC(=O)C(Cc2ccccc2)NC(=O)CN(C)C1=O (centres unmarked) [compound 84] | 1 to 10 | 
21 | CCCC1NCc2cccc(c2)CCNC(=O)C(Cc2ccccc2)NC(=O)CN(C)C1=O (centres unmarked) [compound 85] | > 10 | 

Row | Compound | Ki [1] [µM] | Ki [2] [µM]
22 | CCCC1NCc2csc(n2)CNC(=O)C(Cc2ccccc2)NC(=O)CN(C)C1=O (centres unmarked) [compound 86] | > 10 | 
23 | CC(C)C[C@@H]1NCCOc2ccccc2CCCNC(=O)[C@H](Cc2ccc(O)cc2)NC(=O)C2(CCCC2)NC1=O [compound 88] | 1 to 10 | 
24 | CC(C)C[C@@H]1NCCOc2ccccc2CCCNC(=O)[C@H](Cc2c[nH]c3ccccc23)NC(=O)C2(CCCC2)NC1=O [compound 89] | 1 to 10 | 
25 | CC(C)C[C@@H]1NCCOc2ccccc2CCCNC(=O)[C@H](CCc2ccccc2)NC(=O)C2(CCCC2)NC1=O [compound 90] | 1 to 10 | 
26 | CC(C)CC1NCCOc2ccccc2CCCNC(=O)C(CCCCN)NC(=O)C2(CCCC2)NC1=O (centres unmarked) [compound 91] | > 10 | 
27 | CC(C)C[C@@H]1NCCOc2ccccc2CCCNC(=O)[C@H](CCC(=O)O)NC(=O)C2(CCCC2)NC1=O [compound 92] | > 10 | 
28 | CC(C)CC1NCCOc2ccccc2CCCNC(=O)C(Cc2ccccc2)NC(=O)C(C)NC1=O (centres unmarked) [compound 93] | 1 to 10 | 
29 | CC(C)C[C@@H]1NCCOc2ccccc2CCCNC(=O)[C@H](Cc2ccccc2)NC(=O)[C@@H](C)NC1=O [compound 94] | 1 to 10 | 
30 | CC(C)C[C@@H]1NCCOc2ccccc2CCCNC(=O)[C@H](Cc2ccccc2)NC(=O)C(C)(C)NC1=O [compound 95] | 1 to 10 | 
31 | CC(C)CC1NCCOc2ccccc2CCCNC(=O)C(Cc2ccccc2)NC(=O)C2(CCCC2)NC1=O (centres unmarked) [compound 96] | > 10 | 
32 | CC(C)C[C@H]1NCCOc2ccccc2CCCNC(=O)[C@@H](Cc2ccccc2)NC(=O)C2(CCCC2)NC1=O [compound 98] | > 10 | 
33 | C[C@@H]1NCCOc2ccccc2CCCNC(=O)[C@H](Cc2ccccc2)NC(=O)C2(CCCC2)NC1=O [compound 100] | 0.1 to 1 | 
34 | CCCC[C@@H]1NCCOc2ccccc2CCCNC(=O)[C@H](Cc2ccccc2)NC(=O)C2(CCCC2)NC1=O [compound 101] | 0.1 to 1 | 
35 | O=C1NC2(CCCC2)C(=O)N[C@@H](Cc2ccccc2)C(=O)NCCCc2ccccc2OCCN[C@H]1Cc1ccccc1 [compound 102] | 0.1 to 1 | 
36 | NCCCC[C@@H]1NCCOc2ccccc2CCCNC(=O)[C@H](Cc2ccccc2)NC(=O)C2(CCCC2)NC1=O [compound 103] | > 10 | 
37 | O=C(O)CC[C@@H]1NCCOc2ccccc2CCCNC(=O)[C@H](Cc2ccccc2)NC(=O)C2(CCCC2)NC1=O [compound 104] | > 10 | 
38 | O=C1NC2(CCCC2)C(=O)N[C@@H](Cc2ccccc2)C(=O)NCCCc2ccccc2OCCN[C@H]1CO [compound 105] | 0.1 to 1 | 
39 | O=C1CNCCOc2ccccc2CCCNC(=O)C(Cc2ccccc2)NC(=O)C2(CCCC2)N1 (centres unmarked) [compound 112] | 1 to 10 | 
40 | CC(C)CC1NCc2ccc(cc2)CCNC(=O)C(Cc2ccccc2)NC(=O)C2(CCCC2)NC1=O (centres unmarked) [compound 115] | > 10 | 
41 | CC(C)C[C@@H]1NCCOc2ccccc2CCCNC(=O)[C@@H](Cc2ccccc2)NC(=O)[C@@H](C)N(C)C1=O [compound 118] | 0.01 to 0.1 | 
42 | C[C@@H]1C(=O)N[C@H](Cc2ccccc2)C(=O)NCCCc2ccccc2OCCN[C@@H]([C@@H](C)O)C(=O)N1C [compound 119] | 0.1 to 1 | 

Row | Compound | Ki [1] [µM] | Ki [2] [µM]
43 | CO[C@H](C)[C@@H]1NCCOc2ccccc2CCCNC(=O)[C@@H](Cc2ccccc2)NC(=O)[C@@H](C)N(C)C1=O [compound 120] | 0.01 to 0.1 | 
44 | C[C@@H]1C(=O)N[C@H](Cc2ccccc2)C(=O)NCCCc2ccccc2OCCNC2(CC2)C(=O)N1C [compound 121] | > 10 | 
45 | O=C1NC2(CCCC2)C(=O)NC(Cc2ccccc2)C(=O)NCC=Cc2ccccc2OCCNC1Cc1ccc(F)cc1 (centres unmarked) [compound 125] | > 10 | 
46 | COc1ccc(CC2NCCOc3ccccc3C=CCNC(=O)C(Cc3ccccc3)NC(=O)C3(CCCC3)NC2=O)cc1 (centres unmarked) [compound 127] | 0.1 to 1 | 
47 | O=C1NC2(CCCC2)C(=O)NC(Cc2ccccc2)C(=O)NCC=Cc2ccccc2OCCNC1Cc1cccc2ccccc12 (centres unmarked) [compound 130] | 1 to 10 | 
48 | O=C1NC2(CCCC2)C(=O)N[C@@H](Cc2ccccc2)C(=O)NC/C=C/c2ccccc2OCCN[C@H]1Cc1cccnc1 [compound 132] | > 1 | 
49 | CCC(C)C1NCCOc2ccccc2CCCNC(=O)C(Cc2ccccc2)NC(=O)C(C(C)C)N(C)C1=O (centres unmarked) [compound 144] | 0.1 to 1 | 
50 | CCC(C)C1NCCOc2ccccc2CCCNC(=O)C(Cc2ccccc2)NC(=O)C(CC(C)C)N(C)C1=O (centres unmarked) [compound 147] | > 1 | 
51 | CC[C@H](C)[C@@H]1NCCOc2ccccc2CCCNC(=O)[C@@H](Cc2ccccc2)NC(=O)[C@H](CC(C)C)N(C)C1=O [compound 148] | > 1 | 
52 | CCC(C)C1NCCOc2ccccc2CCCNC(=O)C(Cc2ccccc2)NC(=O)C(C(C)CC)N(C)C1=O (centres unmarked) [compound 149] | 1 to 10 | 
53 | CC[C@H](C)[C@@H]1NCCOc2ccccc2CCCNC(=O)[C@@H](Cc2ccccc2)NC(=O)[C@@H](CO)NC1=O [compound 151] | > 1 | 
54 | CCC(C)C1NC(=O)C2(CCCC2)NC(=O)C(CC(C)C)NCCOc2ccccc2C=CCNC1=O (centres unmarked) [compound 166] |  | > 10
55 | CCC(C)C1NC(=O)C2(CCCC2)NC(=O)C(CC(C)C)NCCOc2ccccc2C=CCNC1=O (centres unmarked) [compound 167] |  | > 10
56 | CC[C@H](C)[C@@H]1NCCOc2ccccc2CCCNC(=O)[C@@H](CCc2ccccc2)NC(=O)[C@@H](C)N(C)C1=O [compound 169] |  | 0.01 to 0.1
57 | CC[C@H](C)[C@@H]1NCCOc2ccccc2CCCNC(=O)[C@@H](Cc2ccncc2)NC(=O)[C@@H](C)N(C)C1=O [compound 171] |  | 0.01 to 0.1
58 | CCC1NC(=O)C(C)N(C)C(=O)C(C(C)CC)NCCOc2ccccc2CCCNC1=O (centres unmarked) [compound 172] |  | > 10
59 | CCCC1NC(=O)C(C)N(C)C(=O)C(C(C)CC)NCCOc2ccccc2CCCNC1=O (centres unmarked) [compound 173] |  | 0.1 to 1
60 | CC[C@H](C)[C@@H]1NCCOc2ccccc2CCCNC(=O)[C@@H](C(C)C)NC(=O)[C@@H](C)N(C)C1=O [compound 174] |  | 0.1 to 1
61 | CC[C@@H](C)[C@H]1NC(=O)[C@@H](C)N(C)C(=O)[C@H]([C@@H](C)CC)NCCOc2ccccc2CCCNC1=O [compound 175] |  | 0.1 to 1
62 | CC[C@H]1NC(=O)[C@@H](C)N(C)C(=O)[C@H]([C@@H](C)CC)NCCOc2ccccc2CCCNC1=O [compound 205] |  | > 10
